Measured values as given in patent US20040198770A1, “Uses for l-tetrahydropalmatine” (PharmacoGenetics Limited, priority 2003, published 2004).

Columns and labels:
Assay type in all cases: in vivo
ICR mice [1] = assay: Hole-board test; conditions: 300 s
Procedure: (§1) ICR mice of male sex, weighing 15.6-17.8 g were used, provided by Experimental Animal Centre of HKUST, housed in groups, given food and water ad libitum and maintained on a 12 hour light: 12 hour dark cycle. All of the experimental groups had 12 animals per group.
(§2) For each experimental animal, administered orally 0.2 ml (pH 7.2) of respective solvent at concentrations as stated above for each group (or double-distilled water for normal control group) one hour before testing.
The hole-board apparatus is a 0.5 cm thick walled wood arena of 60×60×30 cm, with four 5 cm equidistant 4 cm diameter holes spaced on the floor. The mice are placed on the centre of the arena and the number of head-dip on the hole and the number of rearing are counted during a 300 second test period (File S. E. et al., “The effects of triazolobenzo-diazepines in two animal tests of anxiety and in the holeboard.”, Br J Pharmacol. 1985 November; 86(3): 729-35; PMID: 2866006). After each trial, the floor of the apparatus was wiped and dried thoroughly with tissue to remove traces of the previous path.

ICR mice [2] = assay: Elevated plus-maze test; conditions: mice
Procedure: as §1, §2
The elevated plus-maze is made of 0.5 cm thick wood as a horizontal cross consisting of two open arms (25×5 cm) and two opposite arms (25×5 cm) enclosed by 10 cm high walls. The arms extend from a central platform having dimensions of 5×5 cm. The plus-maze is elevated to a height of 40 cm from the floor. The maze is put inside a box with dimensions of 30×30×50 cm. The mice are placed on the central platform of the maze facing a closed arm. The number of arm entries and the time spent in the open and closed arm are counted for 300 seconds (Pellow S. et al., “Anxiolytic and anxiogenic drug effects on exploratory activity in an elevated plus-maze: a novel test of anxiety in the rat”, Pharmacol Biochem Behav. 1986 March; 24(3): 525-9; PMID: 2871560). Arm entry was defined as one half body entered into the arm.

ICR mice [3] = assay: Horizontal-wire test; conditions: Table 2, mice, 60 s
Procedure: as §1, §2
Mice are lifted by the tail and allowed to grasp a horizontally strung wire (1 mm diameter, 20 cm long and placed 20 cm above the table) with their forepaws and released (Bonetti E. P. et al., Psychopharmacology (Berl). 1982; 78(1): 8-18; PMID: 6292984). For each experimental animal, the number of falling onto the table in 60 seconds was determined.
There is no significant difference between same dosage l-THP and dl-THP groups.

## COc1cc2c(cc1OC)C1Cc3ccc(OC)c(OC)c3CN1CC2 (racemic) [dl-THP, 5,8,18,13a-tetrahydro-2,3,9,10-tetramethoxy-6H-dibenzo [a,q] quinolizine, reference compound]
ICR mice [1]; oral 0.1 mg/kg
  Head-dip No.: 13.42 ± 12.06
  Rearing No.: 22.17 ± 12.76
  Total No. (head-dip and rearing): 35.58 ± 16.47
ICR mice [1]; oral 0.5 mg/kg
  Head-dip No.: 17.67 ± 11.14
  Rearing No.: 26.50 ± 10.06
  Total No. (head-dip and rearing): 44.17 ± 13.53
ICR mice [1]; oral 1.0 mg/kg
  Head-dip No.: 13.20 ± 10.64
  Rearing No.: 20.40 ± 15.74
  Total No. (head-dip and rearing): 33.60 ± 20.37
ICR mice [1]; oral 5.0 mg/kg
  Head-dip No.: 11.08 ± 6.34
  Rearing No.: 26.39 ± 12.28
  Total No. (head-dip and rearing): 37.46 ± 15.95
ICR mice [2]; oral
  most medicinal dosage (time spent and percentage of open arm entry): 5 mg/kg
ICR mice [2]; oral 0.1 mg/kg, 300 s
  Open arm entry %: 30.58 ± 5.83 %
  Open arm entry No.: 8.77 ± 1.88
  Total no. of arm entries: 28.92 ± 4.73
ICR mice [2]; oral 0.5 mg/kg, 300 s
  Open arm entry %: 43.13 ± 4.17%
  Open arm entry No.: 13.15 ± 3.33
  Total no. of arm entries: 30.25 ± 5.55
ICR mice [2]; oral 0.5 mg/kg, 300 s test
  Open arm Time spent: 80.42 ± 15.23
  Open arm time spent %: 29.25 ± 5.10%
ICR mice [2]; oral 1.0 mg/kg, 300 s
  Open arm entry %: 51.17 ± 5.48 %
  Open arm entry No.: 16.00 ± 3.13
  Total no. of arm entries: 31.20 ± 4.16
ICR mice [2]; oral 1.0 mg/kg, 300 s test
  Open arm Time spent: 88.40 ± 17.37
  Open arm time spent %: 29.95 ± 5.31%
ICR mice [2]; oral 5 mg/kg
  hypnotic effect / inhibition of the nervous system: does not induce a hypnotic effect or inhibit the nervous system
ICR mice [2]; oral 5.0 mg/kg, 300 s
  Open arm entry %: 50.21 ± 4.04 %
  Open arm entry No.: 15.23 ± 3.19
  Total no. of arm entries: 30.15 ± 4.83
ICR mice [2]; oral 5.0 mg/kg, 300 s test
  Open arm Time spent: 95.00 ± 23.56
  Open arm time spent %: 32.79 ± 8.60 %
ICR mice [3]; oral 0.5 mg/kg
  Number of falling: 0.30 ± 0.48
ICR mice [3]; oral 1.0 mg/kg
  Number of falling: 0.50 ± 0.67
ICR mice [3]; oral 5.0 mg/kg
  Number of falling: 0.40 ± 0.49
ICR mice [3]; oral 10 mg/kg
  Number of falling: 0.80 ± 0.64
ICR mice [3]; oral 30 mg/kg
  Number of falling: 21.60 ± 8.72

## CN1C(=O)CN=C(c2ccccc2)c2cc(Cl)ccc21 [DZ, Diazepam, reference compound]
ICR mice [1]; oral 1.0 mg/kg
  Rearing No.: 26.38 ± 8.51
  Total No. (head-dip and rearing): 42.00 ± 7.11
ICR mice [2]; oral 1.0 mg/kg, 300 s
  Closed arm entry %: 44.58 ± 4.10%
  Closed arm entry No.: 16.75 ± 3.26
  Total no. of arm entries: 38.25 ± 7.06
ICR mice [2]; oral 1.0 mg/kg, 300 s test
  Closed arm Time spent: 159.29 ± 14.18
  Closed arm time spent %: 54.81 ± 4.53 %
ICR mice [2]; oral 1.0 mg/kg, 300 s test, 1 mg/kg
  Open arm time spent %: 45.19 ± 4.53 %
ICR mice [2]; oral 1.0 mg/kg, 300 s, 1 mg/kg
  Open arm entry %: 55.42 ± 4.10 %
